Source: PubChem BioAssay (NCI)
Values joined by “and” are separate entries in the source; they are usually repeats but may differ in a detail not shown here. Identical values can stand only once.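 Cells were grown in 96-well plates and exposed to each compound for 48 hours at five concentrations; endpoints were interpolated linearly between bracketing concentrations, or set to the highest concentration if not reached. Here, GI50 denotes the concentration required for 50% inhibition of growth. TGI: total growth inhibition.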

Assays:
Assay in all cases: NCI tumour cell line growth inhibition, 48 h
M19-MEL melanoma = tested on: M19-MEL melanoma
HOP-18 NSCLC = tested on: HOP-18 NSCLC
DMS 114 small cell lung = tested on: DMS 114 small cell lung
SNB-78 CNS = tested on: SNB-78 CNS
MDA-N = tested on: MDA-N
NCI/ADR-RES ovarian = tested on: NCI/ADR-RES ovarian
HS 578T breast = tested on: HS 578T breast
MDA-MB-231 breast = tested on: MDA-MB-231 breast

| SMILES | TGI (M19-MEL melanoma) | TGI (HOP-18 NSCLC) | TGI (DMS 114 small cell lung) | TGI (SNB-78 CNS) | other results |
| --- | --- | --- | --- | --- | --- |
| Cc1ccccc1CN1CC=c2ccccc2=N1 | > 100 µM | > 100 µM | > 100 µM | > 100 µM |  |
| CN(C)CC1(C)CC/C(=C\c2ccccc2)C1=O (stereo not drawn) | > 100 µM | > 100 µM | > 100 µM | > 100 µM |  |
| CN(C)CCNC(=O)c1cccc2[nH]c(-c3ccccc3)nc12 | 33.5 µM | 46.1 µM | 32.3 µM | > 100 µM |  |
| N.N.NCCCCN.O=C([O-])C1(C(=O)[O-])CCC1.O=C([O-])C1(C(=O)[O-])CCC1.[Pt+4].[Pt+4] |  | > 100 µM |  | > 100 µM | GI50 (HOP-18 NSCLC): > 100 µM; GI50 (SNB-78 CNS): > 100 µM |
| NCc1nnn(Cc2ccccc2)c1N |  |  |  |  | TGI (MDA-N): > 100 µM; TGI (NCI/ADR-RES ovarian): > 100 µM; TGI (HS 578T breast): > 100 µM; TGI (MDA-MB-231 breast): > 100 µM |
| O=C(Nc1nc2ncn(CC(COc3ccccc3)OC(=O)c3ccccc3)c2c(=O)[nH]1)c1ccccc1 (stereo not drawn) | > 100 µM |  | > 100 µM |  |  |
| O=c1cnn2c(n1)sc1ccc3ccccc3c12 | > 100 µM | > 100 µM | > 100 µM | > 100 µM |  |
| O=C(COc1ccccc1)NS(=O)(=O)c1ccccc1 | > 100 µM | > 100 µM | > 100 µM | > 100 µM |  |
| COc1ccc(C(c2c(O)c3ccccc3n(C)c2=O)c2c(O)c3ccccc3n(C)c2=O)cc1 | > 100 µM | > 100 µM | > 100 µM | 67.5 µM |  |
| C1=Cc2nc1c(-c1ccncc1)c1ccc([n-]1)c(-c1ccncc1)c1nc(c(-c3ccncc3)c3ccc([n-]3)c2-c2ccncc2)C=C1.[Zn+2] | > 100 µM |  | > 100 µM | > 100 µM |  |
| CN(C)CCCc1c[nH]c2ccccc12 |  |  |  |  | TGI (MDA-N): > 100 µM; TGI (NCI/ADR-RES ovarian): > 100 µM; TGI (HS 578T breast): > 100 µM; TGI (MDA-MB-231 breast): > 100 µM |
| O=C1C(=O)C(Br)(Br)C(Br)=C1Br | 34.4 µM | 29.8 µM | 40.8 µM |  |  |
| CCCCCCCC/C=C\CCCCCCCC(=O)NCCN(CCN)C(=O)CCCCCCC/C=C\CCCCCCCC | > 100 µM | > 100 µM | > 100 µM |  |  |
| COc1ccc2nc3ccccc3c(NCCCCCCN(C)CCCl)c2c1 | 1.65 µM |  | 1.69 µM | 4.79 µM |  |
| CCN(CC)C(=O)COc1ccc(Br)cc1Br | > 100 µM | > 100 µM | > 100 µM | > 100 µM |  |
| COC(=O)C(Cl)=C1CC1 | > 100 µM |  | 95.6 µM | > 100 µM |  |

| SMILES | TGI (M19-MEL melanoma) | TGI (HOP-18 NSCLC) | TGI (DMS 114 small cell lung) | TGI (SNB-78 CNS) | other results |
| --- | --- | --- | --- | --- | --- |
| O=C(Nc1c(O)[nH]c(=S)[nH]c1=O)c1ccc2ccccc2n1 | > 100 µM | > 100 µM | > 100 µM | > 100 µM |  |
| CC(C)(C)C(=O)C1CC(=O)c2ccccc2C1=O (stereo not drawn) | > 100 µM | > 100 µM | > 100 µM | 90.7 µM |  |
| Cc1ccc(Cl)c(NC(=O)C(=O)C(C(=O)c2ccncc2)C2OC(=O)c3ccccc32)c1 (stereo not drawn) | > 100 µM | > 100 µM | > 100 µM | > 100 µM |  |
| Cc1cc(Cl)ccc1N=C1NC(=O)C(CC(=O)Nc2ccc(Cl)cc2Cl)S1 (stereo not drawn) | > 100 µM |  | > 100 µM | > 100 µM |  |
| C[C@@]12CCC(=O)C=C1CC[C@H]1C2=CC[C@]2(C)C1CC[C@@]2(C)O (stereo partly drawn) |  |  |  |  | TGI (MDA-N): > 100 µM; TGI (NCI/ADR-RES ovarian): > 100 µM; TGI (HS 578T breast): > 100 µM; TGI (MDA-MB-231 breast): > 100 µM |
| Nc1c(-c2ccc(Cl)cc2Cl)[n+]([O-])c2ccccc2[n+]1[O-] | > 100 µM | > 100 µM | > 100 µM | > 100 µM |  |
| CS(=O)(=O)Nc1ccc(Nc2c3ccccc3nc3ccccc23)cc1 | 15 µM | 15 µM | 17 µM | 28.7 µM | TGI (MDA-N): 37 µM; TGI (NCI/ADR-RES ovarian): 41.8 µM; TGI (HS 578T breast): 49.3 µM; TGI (MDA-MB-231 breast): 17.8 µM |
| Nc1ccn(C2CC(CO)C(O)C2O)c(=O)n1 (stereo not drawn) | > 57.7 µM | > 57.7 µM | > 57.7 µM | > 57.7 µM |  |
| CO[C@@H]1[C@H](OC(=O)NC(=O)CCl)CC[C@]2(CO2)[C@H]1[C@@]1(C)O[C@@H]1CC=C(C)C | 24.2 µM |  | 23.4 µM |  | GI50 (M19-MEL melanoma): 1.17 µM; TGI (MDA-N): 27.3 µM; GI50 (DMS 114 small cell lung): 2.17 µM; GI50 (NCI/ADR-RES ovarian): 27.9 µM; TGI (NCI/ADR-RES ovarian): 62.4 µM and 111 µM; TGI (HS 578T breast): 63.7 µM and 157 µM; GI50 (MDA-MB-231 breast): 4.28 µM; TGI (MDA-MB-231 breast): 38.1 µM and 12.7 µM |
| COC(=O)[C@]1(C)CCC[C@@]2(C)C1CCC1=CC3(C(C)C)CCC12OO3 (stereo partly drawn) | > 100 µM |  |  | > 100 µM |  |
| COC(=O)CCC/C=C\C[C@H]1C=CC(=O)/C1=C/C[C@@H](O)C/C=C\CC(F)(F)F |  |  |  |  | GI50 (NCI/ADR-RES ovarian): 2.32 µM; TGI (NCI/ADR-RES ovarian): 8.33 µM; GI50 (HS 578T breast): 8.98 µM; TGI (HS 578T breast): 70.3 µM; GI50 (MDA-MB-231 breast): 2.72 µM; TGI (MDA-MB-231 breast): 7.41 µM |
| CC1C=CC(=O)C(n2cc(F)c(=O)[nH]c2=O)O1 (stereo not drawn) | 36.3 µM | 22.6 µM | 31.5 µM | 83.8 µM |  |
| OCC12C3C4C1C1C2C3C41CO (stereo not drawn) | > 100 µM | > 100 µM | > 100 µM | > 100 µM |  |
| COc1ccc(/C(C)=N/OC(=O)c2c(-c3ccccc3Cl)noc2C)cc1CN1CCOCC1 |  |  |  |  | TGI (MDA-N): 39.9 µM; TGI (NCI/ADR-RES ovarian): > 100 µM; TGI (HS 578T breast): > 100 µM; TGI (MDA-MB-231 breast): 66.5 µM |
| COc1cc(-n2cc(-c3ccc(Cl)cc3)[nH]c2=O)cc(OC)c1OC |  |  |  |  | GI50 (NCI/ADR-RES ovarian): 23.1 µM; TGI (NCI/ADR-RES ovarian): 63.6 µM; GI50 (HS 578T breast): 76.6 µM; TGI (HS 578T breast): > 100 µM; GI50 (MDA-MB-231 breast): 23.1 µM; TGI (MDA-MB-231 breast): 55.4 µM |
